# From US6767889B1, “Inhibition of angiogenesis by high molecular weight kininogen and peptide analogs thereof” (Temple University of the Commonwealth System of Higher …, priority 1998, dated 2004)
# No end group written: not given here.
# System: human umbilical vein endothelial cells (HUVEC)
row,Substance,IC50 [µM]
1,"GHGHGHGKHKNKGKKN-OH [SEQ ID NO:8, Gly-His-Gly-His-Gly-His-Gly-Lys-His-Lys-Asn-Lys-Gly-Lys-Lys-Asn]",8
2,"HKNKGKKNGKHNGWKT-OH [SEQ ID NO:9, His-Lys-Asn-Lys-Gly-Lys-Lys-Asn-Gly-Lys-His-Asn-Gly-Trp-Lys-Thr]",14
